Results published in ChEMBL document CHEMBL1201862, “PubChem BioAssay data set” (2004).
Active and inactive are the calls of the source.

Experiments:
Cysteine protease ATG4B = target: T1, Cysteine protease ATG4B (Homo sapiens, UniProt Q9Y4P1); type: functional;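 also: Fluorescence-based dose-response confirmation assay measuring inhibition of ATG4B activity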
T1 sequence (Q9Y4P1 whole entry): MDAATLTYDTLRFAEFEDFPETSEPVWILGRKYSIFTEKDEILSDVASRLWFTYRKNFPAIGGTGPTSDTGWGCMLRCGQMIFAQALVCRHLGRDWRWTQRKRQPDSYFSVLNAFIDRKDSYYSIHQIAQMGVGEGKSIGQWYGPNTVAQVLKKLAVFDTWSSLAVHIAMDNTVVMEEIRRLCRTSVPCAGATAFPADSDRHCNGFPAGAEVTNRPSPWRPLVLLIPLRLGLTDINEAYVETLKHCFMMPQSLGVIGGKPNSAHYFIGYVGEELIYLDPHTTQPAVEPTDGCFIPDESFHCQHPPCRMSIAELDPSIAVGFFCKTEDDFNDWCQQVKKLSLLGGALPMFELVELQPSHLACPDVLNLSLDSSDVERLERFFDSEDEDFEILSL

[1] = target: T2, Zinc finger protein mex-5 (Caenorhabditis elegans, UniProt Q9XUB2); test: MEX-5/TCR-2 RNA interaction inhibitors, dose response, biochemical, C. elegans, fluorescence polarization (AID 1960)
T2 sequence (Q9XUB2 whole entry): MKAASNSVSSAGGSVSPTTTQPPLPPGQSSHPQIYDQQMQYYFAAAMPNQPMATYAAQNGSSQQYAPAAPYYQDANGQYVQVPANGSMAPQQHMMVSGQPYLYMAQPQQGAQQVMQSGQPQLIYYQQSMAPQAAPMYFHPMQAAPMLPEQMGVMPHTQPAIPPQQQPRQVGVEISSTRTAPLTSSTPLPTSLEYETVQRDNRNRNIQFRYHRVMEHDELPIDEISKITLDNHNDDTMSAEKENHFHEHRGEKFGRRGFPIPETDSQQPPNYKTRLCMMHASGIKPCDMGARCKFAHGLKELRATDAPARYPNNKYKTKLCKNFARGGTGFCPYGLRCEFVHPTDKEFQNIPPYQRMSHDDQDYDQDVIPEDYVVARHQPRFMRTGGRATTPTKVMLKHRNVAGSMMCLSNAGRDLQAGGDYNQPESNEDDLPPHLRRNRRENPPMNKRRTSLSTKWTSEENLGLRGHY

SUMO-activating enzyme [2] = target: T3, SUMO-activating enzyme (Homo sapiens, UniProt Q9UBT2); test: inhibitors of in vitro SUMOylation cascade, primary screen, biochemical, HTRF, uHTS (AID 2006); type: protein-complex assay
[3] = target: Protein disulfide-isomerase (Homo sapiens, UniProt P07237); test: PDI inhibitors, insulin aggregation turbidity, dose response, biochemical, absorbance, cherry-picked samples (AID 602350); type: functional
[4] = target: T4, Induced myeloid leukemia cell differentiation protein Mcl-1 (Homo sapiens, UniProt Q07820); test: MCL1-BIM BH3 interaction inhibitors, dose response, biochemical, fluorescence polarization, BIM-BH3 peptide, 1536-well (AID 2217)
Large T antigen = Large T antigen (Simian virus 40, UniProt P03070); type: functional, Betapolyomavirus macacae;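 also: Confirmatory-stage PubChem screen for compounds that inhibit SV40 T antigen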
[5] = target: T5, RNA-binding protein pos-1 (Caenorhabditis elegans, UniProt G5EF15); test: inhibitors of POS-1/mex-3 RNA binding, dose response, biochemical, fluorescence polarization (AID 1964);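 also: purified POS-1 fused to maltose binding protein made in E. coli; potency of compounds blocking POS-1 binding to fluorescent RNA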
T5 sequence (G5EF15 whole entry): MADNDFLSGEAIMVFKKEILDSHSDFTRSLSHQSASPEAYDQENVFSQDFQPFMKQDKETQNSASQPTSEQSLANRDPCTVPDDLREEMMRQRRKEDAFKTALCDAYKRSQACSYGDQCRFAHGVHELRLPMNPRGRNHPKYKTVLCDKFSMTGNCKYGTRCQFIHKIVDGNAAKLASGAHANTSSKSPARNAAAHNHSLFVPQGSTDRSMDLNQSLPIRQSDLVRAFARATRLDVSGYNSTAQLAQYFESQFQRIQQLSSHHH

Genome polyprotein = Genome polyprotein (dengue virus type 2, UniProt P29990); test: Dengue-2 NS5 methyltransferase inhibitors, primary screen, biochemical, confirmation dose response (AID 588689); type: functional
SUMO-activating enzyme [6] = target: T3, SUMO-activating enzyme; test: SUMOylation inhibitor hit validation, confirmation, SUMOylation inhibitor project, biochemical, AlphaScreen (AID 2018); type: functional
[7] = target: DNA (cytosine-5)-methyltransferase 1 (Homo sapiens, UniProt P26358); test: DNMT1 methyltransferase inhibitors, confirmation, biochemical, fluorescent molecular beacon (AID 602386); type: functional
[8] = target: T4, Induced myeloid leukemia cell differentiation protein Mcl-1; type: functional
Bcl-2-like protein 1 = Bcl-2-like protein 1 (Homo sapiens, UniProt Q07817); test: BCL-XL inhibitors, dose response, selectivity assay for MCL1 inhibitor project, biochemical, fluorescence polarization, 1536-well (AID 2218)
Leucine aminopeptidase = target: T6, Leucine aminopeptidase (Plasmodium falciparum 3D7, UniProt Q8IL11); test: P. falciparum M17LAP inhibitors, primary screen, biochemical, fluorogenic H-Leu-NHMec substrate, 1536-well (AID 1619); type: functional
T6 sequence (Q8IL11 whole entry): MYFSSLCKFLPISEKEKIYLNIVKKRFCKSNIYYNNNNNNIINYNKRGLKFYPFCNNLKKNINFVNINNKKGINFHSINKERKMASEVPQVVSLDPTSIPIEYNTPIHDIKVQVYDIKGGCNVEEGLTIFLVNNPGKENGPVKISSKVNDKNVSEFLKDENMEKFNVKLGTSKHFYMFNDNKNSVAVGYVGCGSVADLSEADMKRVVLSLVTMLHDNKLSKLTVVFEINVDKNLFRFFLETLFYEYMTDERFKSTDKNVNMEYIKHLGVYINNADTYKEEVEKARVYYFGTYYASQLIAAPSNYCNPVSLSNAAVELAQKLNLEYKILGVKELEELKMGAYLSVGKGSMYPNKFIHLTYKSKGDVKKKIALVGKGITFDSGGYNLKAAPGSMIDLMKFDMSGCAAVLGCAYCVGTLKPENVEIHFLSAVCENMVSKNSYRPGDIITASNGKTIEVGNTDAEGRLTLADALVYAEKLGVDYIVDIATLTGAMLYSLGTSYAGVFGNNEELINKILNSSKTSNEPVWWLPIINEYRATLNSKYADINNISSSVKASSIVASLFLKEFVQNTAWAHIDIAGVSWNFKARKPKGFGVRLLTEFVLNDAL

Phospholipase A2 = Phospholipase A2 (Homo sapiens, UniProt P04054); type: functional;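 also: confirmatory dose-response counterscreen on phospholipase A2, testing hits that came from an ultra-high-throughput screen for ATG4B inhibitors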
Nonstructural protein 1 = Nonstructural protein 1 (Influenza A virus, UniProt Q194T2); type: functional, Influenza A virus (A/California/07/2009(H1N1))
[9] = yeast RAM network inhibitors, dose response, S. cerevisiae (AID 1307); type: functional
BJ [10] = test: cytotoxicity toward BJ-TERT fibroblasts, dose response, cell-based, RAS-independent, luminescence (AID 1933); type: functional; settings: Homo sapiens
[11] = HEK293 cell cytotoxicity, dose response, cytotoxicity control, dry powder samples (AID 720567); type: functional, cell-based
[12] = cytotoxicity in HEK-293T cells, dose response, cytotoxicity control for TCR NF-kB inhibitor project, luminescence, T-cell screen hits (AID 489026); type: functional, cell-based;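 also: cells exposed to compound about 14 hours before the viability readout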
[13] = cytotoxicity toward NIH3T3 fibroblasts, dose response, counter-screen, cell-based, ATP luminescence, mouse fibroblasts (AID 2010); type: functional;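 also: cells exposed to compound for about 90 hours before reading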
BJ [14] = test: cytotoxicity toward BJ-TERT-LT-ST fibroblasts, dose response, cell-based, RAS-independent, luminescence (AID 1935); type: functional; settings: Homo sapiens;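 also: BJ fibroblasts immortalized with TERT plus LT and ST oncogenes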
[15] = inhibitors of intracellular T. cruzi replication, confirmation, NIH3T3 host cells, beta-gal luminescence (AID 2044); type: functional, cell-based;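 also: intracellular parasites grown in NIH/3T3 mouse fibroblasts as host cells; luminescent beta-galactosidase reporter signal from transgenic T. cruzi replicating inside host cells; inhibitors lower the luminescence signal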
[16] = cytotoxicity toward DRD oncogenic fibroblasts, dose response, cell-based, non-viral oncogenic, luminescence (AID 1934); type: functional; settings: Homo sapiens
[17] = Luminescence-based dose response cell-based high throughput screening assay for cytotoxic compounds using the IEC-6 intestinal epithelial cell line. [Related pubchem assays: 1858 (Summary AID.), 1825 (Counterscreen.), 1907 (Confirmation screen.)]; type: functional
BJ [18] = test: cells; type: functional, cell-based; settings: Homo sapiens
[19] = Luminescence Cell-Based Dose Confirmation to Identify Activators of 5'UTR Stem-Loop Driven Alpha-Synuclein mRNA Translation in H4 Neuroglioblastoma Cells. [Related pubchem assays: 1829 (Project Summary), 1814 (Primary HTS)]; type: functional
[20] = Luminescence Cell-Based Dose Response to Identify Activators of Luciferase Translation or Activity in H4-C Neuroglioblastoma Cells. [Related pubchem assays: 1829 (Project Summary), 1814 (Primary HTS)]; type: functional
[21] = Luminescence Cell-Based Dose Response to Identify Activators of 5'UTR Stem-Loop Driven Prion Protein mRNA Translation in H4-C Neuroglioblastoma Cells. [Related pubchem assays: 1829 (Project Summary), 1814 (Primary HTS)]; type: functional
[22] = Luminescence Cell-Based Dose Response HTS to Identify Activators of Luciferase Translation or Activity in H4 […] Cells. [Related pubchem assays: 1829 (Project Summary), 1814 (Primary HTS)]; type: functional

T3 sequence (Q9UBE0 whole entry): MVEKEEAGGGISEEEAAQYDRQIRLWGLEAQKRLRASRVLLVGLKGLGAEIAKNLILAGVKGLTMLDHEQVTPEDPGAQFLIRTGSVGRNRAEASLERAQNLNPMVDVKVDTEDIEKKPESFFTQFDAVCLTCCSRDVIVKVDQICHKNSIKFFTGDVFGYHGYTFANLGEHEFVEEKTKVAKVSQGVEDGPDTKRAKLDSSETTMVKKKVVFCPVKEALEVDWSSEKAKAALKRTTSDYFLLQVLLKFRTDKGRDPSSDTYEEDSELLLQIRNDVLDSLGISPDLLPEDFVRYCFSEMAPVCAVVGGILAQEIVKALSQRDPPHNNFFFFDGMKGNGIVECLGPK
T3 sequence (Q9UBT2 whole entry): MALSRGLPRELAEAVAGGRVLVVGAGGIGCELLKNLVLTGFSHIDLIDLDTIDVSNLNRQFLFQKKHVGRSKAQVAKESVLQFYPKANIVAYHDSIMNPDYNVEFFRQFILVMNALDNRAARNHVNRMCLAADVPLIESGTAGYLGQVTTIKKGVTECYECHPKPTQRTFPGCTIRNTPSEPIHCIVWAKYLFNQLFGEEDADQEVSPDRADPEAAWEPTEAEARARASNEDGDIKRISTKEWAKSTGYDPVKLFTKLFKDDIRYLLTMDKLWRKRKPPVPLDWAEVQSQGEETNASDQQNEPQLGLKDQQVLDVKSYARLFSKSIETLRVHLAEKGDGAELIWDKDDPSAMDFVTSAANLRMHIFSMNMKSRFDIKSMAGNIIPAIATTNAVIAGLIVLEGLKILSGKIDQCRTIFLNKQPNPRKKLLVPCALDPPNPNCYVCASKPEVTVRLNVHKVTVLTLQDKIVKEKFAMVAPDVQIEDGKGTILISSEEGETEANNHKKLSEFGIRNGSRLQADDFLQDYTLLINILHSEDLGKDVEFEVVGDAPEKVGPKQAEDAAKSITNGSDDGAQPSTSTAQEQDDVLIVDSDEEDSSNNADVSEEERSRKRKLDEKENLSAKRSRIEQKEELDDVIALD
T4 sequence (Q07820 whole entry): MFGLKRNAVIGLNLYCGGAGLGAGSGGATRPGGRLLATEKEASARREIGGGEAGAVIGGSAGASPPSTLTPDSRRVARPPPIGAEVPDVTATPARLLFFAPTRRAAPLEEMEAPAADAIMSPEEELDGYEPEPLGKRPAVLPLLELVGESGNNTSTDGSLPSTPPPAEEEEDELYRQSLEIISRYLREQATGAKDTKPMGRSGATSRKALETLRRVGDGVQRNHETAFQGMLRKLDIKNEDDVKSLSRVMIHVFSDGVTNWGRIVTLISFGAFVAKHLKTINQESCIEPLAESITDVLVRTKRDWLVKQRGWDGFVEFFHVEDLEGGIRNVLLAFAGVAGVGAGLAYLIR
Chain of Large T antigen (P03070 whole entry, the tested form may be a part): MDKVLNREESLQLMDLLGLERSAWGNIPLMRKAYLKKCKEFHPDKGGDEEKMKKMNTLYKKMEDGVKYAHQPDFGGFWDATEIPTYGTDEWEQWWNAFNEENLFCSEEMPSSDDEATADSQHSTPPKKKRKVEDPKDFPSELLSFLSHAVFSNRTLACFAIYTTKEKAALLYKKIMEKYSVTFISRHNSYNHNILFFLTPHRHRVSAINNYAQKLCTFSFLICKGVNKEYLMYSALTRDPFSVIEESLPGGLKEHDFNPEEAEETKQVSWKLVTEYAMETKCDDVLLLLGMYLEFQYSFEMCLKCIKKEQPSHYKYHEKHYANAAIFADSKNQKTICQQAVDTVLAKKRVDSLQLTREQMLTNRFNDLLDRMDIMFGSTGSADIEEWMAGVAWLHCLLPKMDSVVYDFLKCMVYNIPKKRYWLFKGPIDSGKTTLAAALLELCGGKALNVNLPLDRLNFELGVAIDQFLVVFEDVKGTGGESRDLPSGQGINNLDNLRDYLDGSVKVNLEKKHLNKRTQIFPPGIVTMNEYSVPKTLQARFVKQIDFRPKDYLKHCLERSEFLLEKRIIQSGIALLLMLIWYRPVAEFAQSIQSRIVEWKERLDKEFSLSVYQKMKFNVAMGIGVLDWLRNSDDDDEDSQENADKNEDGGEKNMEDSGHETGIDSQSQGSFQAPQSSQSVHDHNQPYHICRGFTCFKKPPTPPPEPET
Chain of DNA (cytosine-5)-methyltransferase 1 (P26358 whole entry): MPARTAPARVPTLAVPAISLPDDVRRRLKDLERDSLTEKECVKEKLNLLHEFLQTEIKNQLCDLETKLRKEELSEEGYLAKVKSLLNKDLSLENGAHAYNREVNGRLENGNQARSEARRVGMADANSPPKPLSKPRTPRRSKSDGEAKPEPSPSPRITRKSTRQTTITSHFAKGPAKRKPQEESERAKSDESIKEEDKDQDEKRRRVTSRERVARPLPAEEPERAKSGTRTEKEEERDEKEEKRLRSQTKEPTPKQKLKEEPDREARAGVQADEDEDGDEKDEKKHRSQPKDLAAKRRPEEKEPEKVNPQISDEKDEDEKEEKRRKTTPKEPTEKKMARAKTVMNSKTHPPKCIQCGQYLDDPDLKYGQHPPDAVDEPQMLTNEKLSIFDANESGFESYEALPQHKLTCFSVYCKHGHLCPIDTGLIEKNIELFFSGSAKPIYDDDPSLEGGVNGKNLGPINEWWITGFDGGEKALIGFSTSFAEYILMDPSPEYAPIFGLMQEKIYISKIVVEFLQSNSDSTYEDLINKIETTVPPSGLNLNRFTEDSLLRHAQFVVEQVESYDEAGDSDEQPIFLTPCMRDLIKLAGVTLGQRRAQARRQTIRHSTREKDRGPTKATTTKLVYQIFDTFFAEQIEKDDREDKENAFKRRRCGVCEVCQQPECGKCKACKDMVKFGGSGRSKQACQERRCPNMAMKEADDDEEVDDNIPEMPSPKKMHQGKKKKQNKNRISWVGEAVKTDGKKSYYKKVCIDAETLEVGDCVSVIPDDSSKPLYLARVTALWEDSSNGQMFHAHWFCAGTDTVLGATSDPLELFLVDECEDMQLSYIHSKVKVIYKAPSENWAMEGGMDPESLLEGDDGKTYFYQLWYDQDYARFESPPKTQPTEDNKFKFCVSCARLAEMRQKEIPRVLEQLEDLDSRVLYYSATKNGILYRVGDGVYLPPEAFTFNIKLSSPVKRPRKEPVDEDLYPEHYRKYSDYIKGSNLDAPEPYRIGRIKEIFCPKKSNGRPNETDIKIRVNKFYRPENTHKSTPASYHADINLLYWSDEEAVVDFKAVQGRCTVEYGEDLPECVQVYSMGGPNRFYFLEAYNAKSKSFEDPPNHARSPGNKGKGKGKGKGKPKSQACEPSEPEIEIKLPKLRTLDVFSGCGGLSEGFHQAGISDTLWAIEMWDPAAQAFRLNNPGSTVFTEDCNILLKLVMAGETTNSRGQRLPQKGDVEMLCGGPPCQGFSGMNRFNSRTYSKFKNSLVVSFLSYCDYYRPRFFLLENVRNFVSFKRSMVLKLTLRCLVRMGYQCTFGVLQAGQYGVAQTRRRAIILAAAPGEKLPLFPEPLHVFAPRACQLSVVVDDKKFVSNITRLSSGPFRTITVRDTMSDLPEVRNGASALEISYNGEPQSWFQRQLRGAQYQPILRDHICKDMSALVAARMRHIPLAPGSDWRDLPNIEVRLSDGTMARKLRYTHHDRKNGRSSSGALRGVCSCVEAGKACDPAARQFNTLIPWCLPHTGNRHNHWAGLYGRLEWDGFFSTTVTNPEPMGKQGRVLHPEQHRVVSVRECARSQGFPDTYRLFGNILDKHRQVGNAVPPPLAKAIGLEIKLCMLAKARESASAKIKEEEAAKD
Chain of Genome polyprotein (P29990 2492-3391 limits assumed): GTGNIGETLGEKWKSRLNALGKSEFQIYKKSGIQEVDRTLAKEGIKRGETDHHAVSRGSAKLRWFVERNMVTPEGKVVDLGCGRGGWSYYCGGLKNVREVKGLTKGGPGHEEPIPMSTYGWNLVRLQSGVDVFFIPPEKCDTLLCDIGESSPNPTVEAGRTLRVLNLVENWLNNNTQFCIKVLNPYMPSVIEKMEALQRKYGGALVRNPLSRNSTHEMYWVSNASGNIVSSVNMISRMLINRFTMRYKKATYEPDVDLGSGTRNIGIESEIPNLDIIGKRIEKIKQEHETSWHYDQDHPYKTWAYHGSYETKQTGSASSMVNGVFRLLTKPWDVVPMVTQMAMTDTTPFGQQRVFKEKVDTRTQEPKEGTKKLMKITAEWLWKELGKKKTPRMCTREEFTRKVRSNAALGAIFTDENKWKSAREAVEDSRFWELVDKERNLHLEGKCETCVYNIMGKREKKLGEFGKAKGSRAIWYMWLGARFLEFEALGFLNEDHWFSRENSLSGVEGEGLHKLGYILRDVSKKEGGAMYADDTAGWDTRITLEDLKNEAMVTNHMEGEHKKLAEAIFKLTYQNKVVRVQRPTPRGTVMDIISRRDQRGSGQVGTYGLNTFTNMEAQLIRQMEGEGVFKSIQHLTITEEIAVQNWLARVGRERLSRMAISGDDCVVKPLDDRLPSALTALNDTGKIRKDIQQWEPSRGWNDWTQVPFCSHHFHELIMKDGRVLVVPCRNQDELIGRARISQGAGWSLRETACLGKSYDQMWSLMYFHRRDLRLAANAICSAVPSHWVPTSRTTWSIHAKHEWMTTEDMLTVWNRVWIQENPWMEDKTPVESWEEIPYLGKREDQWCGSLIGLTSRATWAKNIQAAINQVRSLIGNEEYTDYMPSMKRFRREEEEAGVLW
Chain of Nonstructural protein 1 (Q194T2 whole entry): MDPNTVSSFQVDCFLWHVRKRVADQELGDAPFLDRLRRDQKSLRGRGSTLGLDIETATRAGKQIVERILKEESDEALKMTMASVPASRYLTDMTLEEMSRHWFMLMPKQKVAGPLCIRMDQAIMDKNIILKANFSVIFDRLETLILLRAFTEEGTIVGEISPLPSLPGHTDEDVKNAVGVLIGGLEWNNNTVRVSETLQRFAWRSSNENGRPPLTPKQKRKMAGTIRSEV
Chain of Phospholipase A2 (P04054 whole entry): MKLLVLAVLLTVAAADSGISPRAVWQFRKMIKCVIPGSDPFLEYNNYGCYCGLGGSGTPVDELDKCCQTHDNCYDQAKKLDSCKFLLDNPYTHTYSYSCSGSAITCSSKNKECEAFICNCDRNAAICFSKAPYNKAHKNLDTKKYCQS

Compound: COc1cccc(NS(=O)(=O)c2ccc3c(c2)C2C=CCC2C(c2ccc(C(=O)O)cc2)N3)c1 (centres undefined)
- IC50 (Cysteine protease ATG4B): 10.7 µM (active)
- EC50 [1]: 12.5 µM (active)
- IC50 (SUMO-activating enzyme [2]): 9.5 µM (active)
- AC50 [3]: 15.8 µM (active)
- IC50 [4]: 18.9 µM (not active)
- IC50 (Large T antigen): > 100 µM (active)
- EC50 [5]: 18 µM (inconclusive)
- IC50 (Genome polyprotein): 67 µM (active)
- IC50 (SUMO-activating enzyme [6]): 2.15 µM (active)
- IC50 [7]: 7.94 µM (active)
- IC50 [8]: 2.32 µM (active)
- IC50 (Bcl-2-like protein 1): 64.9 µM (not active)
- IC50 (Leucine aminopeptidase): 15.8 µM (active)
- IC50 (Phospholipase A2): 10.6 µM (active)
- IC50 (Nonstructural protein 1): > 100 µM (active)

Compound: CN1/C(=C\C=C2/C(=O)Oc3ccccc3C2=O)C(C)(C)c2ccccc21
- IC50 [9]: 178 µM (active)

Compound: CCn1c2ccccc2c2cc(NC(=O)c3cc(OC)c(OC)c(OC)c3)ccc21
- EC50 (BJ [10]): 0.184 µM (active)
- AC50 [11]: 25.6 µM (active)
- IC50 [12]: > 80 µM (inactive)
- EC50 [13]: 0.121 µM (active)
- EC50 (BJ [14]): 0.165 µM (inconclusive)
- EC50 [15]: 1 µM (active)
- EC50 [16]: 0.284 µM (inconclusive)
- IC50 [17]: 0.534 µM (active)
- EC50 (BJ [18]): 0.745 µM (inconclusive)

Compound: O=c1sc(N2CCN(c3ccccc3F)CC2)nc2ccsc12
- EC50 [19]: 0.237 µM (active)
- EC50 [20]: 0.349 µM (active)
- EC50 [21]: 0.309 µM (active)
- EC50 [22]: < 0.1 µM (inconclusive)
